Reference: the NIST ThermoML archive (doi:10.1021/je500381c)
± gives the expanded uncertainty stated by the source.

Assay: xn = mol fraction of the nth substance listed
Settings: for mass density / viscosity: 100 kPa, Liquid; for mass density: Vibrating tube method; for surface tension liquid-gas: Drop volume

## CC12CC3CC(C1)CC(C)(C3)C2 [1,3-dimethyladamantane] + CCCCCCCO
293.15 K, x2 = 0
  mass density: 901.58 ± 0.12 kg/m3
  viscosity: 3.764 ± 0.059 mPa·s
293.15 K, x2 = 0.1001
  mass density: 895.5 ± 0.12 kg/m3
  viscosity: 3.692 ± 0.057 mPa·s
293.15 K, x2 = 0.199
  mass density: 889.11 ± 0.13 kg/m3
  viscosity: 3.788 ± 0.059 mPa·s
293.15 K, x2 = 0.2998
  mass density: 882.35 ± 0.13 kg/m3
  viscosity: 3.972 ± 0.062 mPa·s
293.15 K, x2 = 0.3997
  mass density: 875.32 ± 0.13 kg/m3
  viscosity: 4.181 ± 0.065 mPa·s
293.15 K, x2 = 0.4997
  mass density: 867.82 ± 0.13 kg/m3
  viscosity: 4.522 ± 0.071 mPa·s
293.15 K, x2 = 0.6002
  mass density: 859.93 ± 0.14 kg/m3
  viscosity: 4.92 ± 0.077 mPa·s
293.15 K, x2 = 0.7
  mass density: 851.41 ± 0.14 kg/m3
  viscosity: 5.419 ± 0.085 mPa·s
293.15 K, x2 = 0.7996
  mass density: 842.45 ± 0.15 kg/m3
  viscosity: 5.924 ± 0.093 mPa·s
293.15 K, x2 = 0.8999
  mass density: 832.71 ± 0.15 kg/m3
  viscosity: 6.447 ± 0.1 mPa·s
298.15 K, x2 = 0
  surface tension liquid-gas: 27.88 ± 0.15 mN/m
  mass density: 898.04 ± 0.12 kg/m3
  viscosity: 3.345 ± 0.052 mPa·s
298.15 K, x2 = 0.1001
  surface tension liquid-gas: 27.82 ± 0.15 mN/m
  mass density: 891.87 ± 0.12 kg/m3
  viscosity: 3.271 ± 0.051 mPa·s
298.15 K, x2 = 0.1997
  surface tension liquid-gas: 27.69 ± 0.15 mN/m
298.15 K, x2 = 0.2998
  surface tension liquid-gas: 27.48 ± 0.16 mN/m
  mass density: 878.72 ± 0.13 kg/m3
  viscosity: 3.475 ± 0.054 mPa·s
298.15 K, x2 = 0.3997
  surface tension liquid-gas: 27.35 ± 0.16 mN/m
  mass density: 871.68 ± 0.13 kg/m3
  viscosity: 3.686 ± 0.057 mPa·s
298.15 K, x2 = 0.4997
  surface tension liquid-gas: 27.15 ± 0.16 mN/m
  mass density: 864.19 ± 0.14 kg/m3
  viscosity: 3.909 ± 0.061 mPa·s
298.15 K, x2 = 0.6002
  surface tension liquid-gas: 27.02 ± 0.16 mN/m
  mass density: 856.3 ± 0.14 kg/m3
  viscosity: 4.218 ± 0.066 mPa·s
298.15 K, x2 = 0.7
  surface tension liquid-gas: 26.79 ± 0.16 mN/m
  mass density: 847.82 ± 0.14 kg/m3
  viscosity: 4.611 ± 0.072 mPa·s
298.15 K, x2 = 0.7996
  surface tension liquid-gas: 26.56 ± 0.16 mN/m
  mass density: 838.88 ± 0.15 kg/m3
  viscosity: 5.028 ± 0.079 mPa·s
298.15 K, x2 = 0.8999
  surface tension liquid-gas: 26.36 ± 0.16 mN/m
  mass density: 829.21 ± 0.15 kg/m3
  viscosity: 5.454 ± 0.086 mPa·s
298.15 K, x2 = 0.199
  mass density: 885.48 ± 0.13 kg/m3
  viscosity: 3.342 ± 0.052 mPa·s
303.15 K, x2 = 0
  mass density: 894.48 ± 0.12 kg/m3
  viscosity: 3.004 ± 0.047 mPa·s
303.15 K, x2 = 0.1001
  mass density: 888.23 ± 0.12 kg/m3
  viscosity: 2.913 ± 0.045 mPa·s
303.15 K, x2 = 0.199
  mass density: 881.84 ± 0.13 kg/m3
  viscosity: 2.963 ± 0.046 mPa·s
303.15 K, x2 = 0.2998
  mass density: 875.06 ± 0.13 kg/m3
  viscosity: 3.066 ± 0.048 mPa·s
303.15 K, x2 = 0.3997
  mass density: 868.01 ± 0.13 kg/m3
  viscosity: 3.238 ± 0.051 mPa·s
303.15 K, x2 = 0.4997
  mass density: 860.52 ± 0.14 kg/m3
  viscosity: 3.414 ± 0.053 mPa·s
303.15 K, x2 = 0.6002
  mass density: 852.65 ± 0.14 kg/m3
  viscosity: 3.657 ± 0.057 mPa·s
303.15 K, x2 = 0.7
  mass density: 844.21 ± 0.14 kg/m3
  viscosity: 3.967 ± 0.062 mPa·s
303.15 K, x2 = 0.7996
  mass density: 835.28 ± 0.15 kg/m3
  viscosity: 4.304 ± 0.067 mPa·s
303.15 K, x2 = 0.8999
  mass density: 825.66 ± 0.16 kg/m3
  viscosity: 4.649 ± 0.073 mPa·s
308.15 K, x2 = 0
  mass density: 890.92 ± 0.12 kg/m3
  viscosity: 2.711 ± 0.042 mPa·s
308.15 K, x2 = 0.1001
  mass density: 884.58 ± 0.12 kg/m3
  viscosity: 2.609 ± 0.041 mPa·s
308.15 K, x2 = 0.199
  mass density: 878.15 ± 0.13 kg/m3
  viscosity: 2.642 ± 0.041 mPa·s
308.15 K, x2 = 0.2998
  mass density: 871.37 ± 0.13 kg/m3
  viscosity: 2.721 ± 0.042 mPa·s
308.15 K, x2 = 0.3997
  mass density: 864.33 ± 0.13 kg/m3
  viscosity: 2.862 ± 0.045 mPa·s
308.15 K, x2 = 0.4997
  mass density: 856.84 ± 0.14 kg/m3
  viscosity: 3 ± 0.047 mPa·s
308.15 K, x2 = 0.6002
  mass density: 848.97 ± 0.14 kg/m3
  viscosity: 3.194 ± 0.05 mPa·s
308.15 K, x2 = 0.7
  mass density: 840.56 ± 0.15 kg/m3
  viscosity: 3.439 ± 0.054 mPa·s
308.15 K, x2 = 0.7996
  mass density: 831.66 ± 0.15 kg/m3
  viscosity: 3.711 ± 0.058 mPa·s
308.15 K, x2 = 0.8999
  mass density: 822.07 ± 0.16 kg/m3
  viscosity: 3.992 ± 0.063 mPa·s
313.15 K, x2 = 0
  mass density: 887.35 ± 0.12 kg/m3
  viscosity: 2.458 ± 0.038 mPa·s
313.15 K, x2 = 0.1001
  mass density: 880.92 ± 0.13 kg/m3
  viscosity: 2.347 ± 0.037 mPa·s
313.15 K, x2 = 0.199
  mass density: 874.46 ± 0.13 kg/m3
  viscosity: 2.366 ± 0.037 mPa·s
313.15 K, x2 = 0.2998
  mass density: 867.67 ± 0.13 kg/m3
  viscosity: 2.427 ± 0.038 mPa·s
313.15 K, x2 = 0.3997
  mass density: 860.62 ± 0.13 kg/m3
  viscosity: 2.542 ± 0.04 mPa·s
313.15 K, x2 = 0.4997
  mass density: 853.13 ± 0.14 kg/m3
  viscosity: 2.653 ± 0.041 mPa·s
313.15 K, x2 = 0.6002
  mass density: 845.27 ± 0.14 kg/m3
  viscosity: 2.807 ± 0.044 mPa·s
313.15 K, x2 = 0.7
  mass density: 836.88 ± 0.15 kg/m3
  viscosity: 3.001 ± 0.047 mPa·s
313.15 K, x2 = 0.7996
  mass density: 828.01 ± 0.15 kg/m3
  viscosity: 3.22 ± 0.051 mPa·s
313.15 K, x2 = 0.8999
  mass density: 818.46 ± 0.16 kg/m3
  viscosity: 3.45 ± 0.054 mPa·s
318.15 K, x2 = 0
  mass density: 883.77 ± 0.12 kg/m3
  viscosity: 2.237 ± 0.035 mPa·s
318.15 K, x2 = 0.1001
  mass density: 877.24 ± 0.13 kg/m3
  viscosity: 2.121 ± 0.033 mPa·s
318.15 K, x2 = 0.199
  mass density: 870.75 ± 0.13 kg/m3
  viscosity: 2.129 ± 0.033 mPa·s
318.15 K, x2 = 0.2998
  mass density: 863.95 ± 0.13 kg/m3
  viscosity: 2.175 ± 0.034 mPa·s
318.15 K, x2 = 0.3997
  mass density: 856.89 ± 0.14 kg/m3
  viscosity: 2.269 ± 0.035 mPa·s
318.15 K, x2 = 0.4997
  mass density: 849.4 ± 0.14 kg/m3
  viscosity: 2.359 ± 0.037 mPa·s
318.15 K, x2 = 0.6002
  mass density: 841.54 ± 0.14 kg/m3
  viscosity: 2.481 ± 0.039 mPa·s
318.15 K, x2 = 0.7
  mass density: 833.18 ± 0.15 kg/m3
  viscosity: 2.636 ± 0.041 mPa·s
318.15 K, x2 = 0.7996
  mass density: 824.33 ± 0.15 kg/m3
  viscosity: 2.813 ± 0.044 mPa·s
318.15 K, x2 = 0.8999
  mass density: 814.8 ± 0.16 kg/m3
  viscosity: 3.002 ± 0.047 mPa·s
323.15 K, x2 = 0
  mass density: 880.19 ± 0.12 kg/m3
  viscosity: 2.045 ± 0.032 mPa·s
323.15 K, x2 = 0.1001
  mass density: 873.55 ± 0.13 kg/m3
  viscosity: 1.925 ± 0.03 mPa·s
323.15 K, x2 = 0.199
  mass density: 867.02 ± 0.13 kg/m3
  viscosity: 1.925 ± 0.03 mPa·s
323.15 K, x2 = 0.2998
  mass density: 860.2 ± 0.13 kg/m3
  viscosity: 1.958 ± 0.031 mPa·s
323.15 K, x2 = 0.3997
  mass density: 853.14 ± 0.14 kg/m3
  viscosity: 2.035 ± 0.032 mPa·s
323.15 K, x2 = 0.4997
  mass density: 845.65 ± 0.14 kg/m3
  viscosity: 2.107 ± 0.033 mPa·s
323.15 K, x2 = 0.6002
  mass density: 837.79 ± 0.14 kg/m3
  viscosity: 2.205 ± 0.035 mPa·s
323.15 K, x2 = 0.7
  mass density: 829.46 ± 0.15 kg/m3
  viscosity: 2.329 ± 0.037 mPa·s
323.15 K, x2 = 0.7996
  mass density: 820.62 ± 0.15 kg/m3
  viscosity: 2.472 ± 0.039 mPa·s
323.15 K, x2 = 0.8999
  mass density: 811.12 ± 0.16 kg/m3
  viscosity: 2.626 ± 0.041 mPa·s
328.15 K, x2 = 0
  mass density: 876.6 ± 0.13 kg/m3
  viscosity: 1.876 ± 0.029 mPa·s
328.15 K, x2 = 0.1001
  mass density: 869.84 ± 0.13 kg/m3
  viscosity: 1.754 ± 0.027 mPa·s
328.15 K, x2 = 0.199
  mass density: 863.27 ± 0.13 kg/m3
  viscosity: 1.745 ± 0.027 mPa·s
328.15 K, x2 = 0.2998
  mass density: 856.43 ± 0.13 kg/m3
  viscosity: 1.769 ± 0.028 mPa·s
328.15 K, x2 = 0.3997
  mass density: 849.36 ± 0.14 kg/m3
  viscosity: 1.833 ± 0.029 mPa·s
328.15 K, x2 = 0.4997
  mass density: 841.86 ± 0.14 kg/m3
  viscosity: 1.891 ± 0.03 mPa·s
328.15 K, x2 = 0.6002
  mass density: 834.01 ± 0.14 kg/m3
  viscosity: 1.97 ± 0.031 mPa·s
328.15 K, x2 = 0.7
  mass density: 825.68 ± 0.15 kg/m3
  viscosity: 2.069 ± 0.032 mPa·s
328.15 K, x2 = 0.7996
  mass density: 816.87 ± 0.15 kg/m3
  viscosity: 2.184 ± 0.034 mPa·s
328.15 K, x2 = 0.8999
  mass density: 807.4 ± 0.16 kg/m3
  viscosity: 2.311 ± 0.036 mPa·s
333.15 K, x2 = 0
  mass density: 873.01 ± 0.13 kg/m3
  viscosity: 1.728 ± 0.027 mPa·s
333.15 K, x2 = 0.1001
  mass density: 866.11 ± 0.13 kg/m3
  viscosity: 1.603 ± 0.025 mPa·s
333.15 K, x2 = 0.199
  mass density: 859.5 ± 0.13 kg/m3
  viscosity: 1.589 ± 0.025 mPa·s
333.15 K, x2 = 0.2998
  mass density: 852.63 ± 0.13 kg/m3
  viscosity: 1.605 ± 0.025 mPa·s
333.15 K, x2 = 0.3997
  mass density: 845.56 ± 0.14 kg/m3
  viscosity: 1.658 ± 0.026 mPa·s
333.15 K, x2 = 0.4997
  mass density: 838.05 ± 0.14 kg/m3
  viscosity: 1.704 ± 0.027 mPa·s
333.15 K, x2 = 0.6002
  mass density: 830.19 ± 0.15 kg/m3
  viscosity: 1.767 ± 0.028 mPa·s
333.15 K, x2 = 0.7
  mass density: 821.88 ± 0.15 kg/m3
  viscosity: 1.847 ± 0.029 mPa·s
333.15 K, x2 = 0.7996
  mass density: 813.08 ± 0.16 kg/m3
  viscosity: 1.938 ± 0.03 mPa·s
333.15 K, x2 = 0.8999
  mass density: 803.64 ± 0.16 kg/m3
  viscosity: 2.044 ± 0.032 mPa·s
